US20130130387A1, “METHOD FOR GENERATING INDUCED PLURIPOTENT STEM CELLS FROM KERATINOCYTES DERIVED FROM PLUCKED HAIR FOLLICLES” (Technion Research & Development Foundation Limited, priority 2010, published 2013)
Entries after “also recorded” stand apart in the source; their conditions may differ.

Experiments:
HFKTs (KTN) = experiment: Conditions improving HFKT reprogramming: validated iPSC colonies; assay type: cell-based, human; conditions: for Validated iPSCs colonies: frozen virus, reduced virus concentration
[1] = tested on: HFKT-iPSC-CMs (β-adrenergic signaling pathway); experiment: [Ca2+]i transients and contractions of HFKT-iPSC-derived cardiomyocytes; assay type: cell-based, human; conditions: HFKT-iPSC-CMs clone KTR13, 37 day-old EB, stimulated at 0.6 Hz; effect within 2-3 min
Method: [Ca^2+]i transients and contractions were measured in small dissociated contracting areas of EBs by means of fura-2 fluorescence (Biotium, Hayward, Calif., USA) and a video edge detector, respectively, as previously described (Dolnikov et al. 2006; Sedan et al. 2008).
In order to investigate the basic properties of the intracellular Ca^2+ ([Ca^2+]i) handling machinery and the mechanical function, [Ca^2+]I transients and contractions were recorded from small contracting clusters of the HFKT-iPSC-CMs by means of fura-2 fluorescence and a video edge detector, respectively.

Which results are given for `Cc1c[nH]c(-c2cnc(NCCNc3ccc(C#N)cn3)nc2-c2ccc(Cl)cc2Cl)n1` [CHIR99021]?
Validated iPSCs colonies (HFKTs (KTN); KTN + Cherry (3 reprogramming factors, no c-Myc)): 6; Validated iPSCs colonies (HFKTs (KTN); KTN + Stemcca (4 reprogramming factors)): 2; Generation of iPSCs with reduced number of factors (HFKTs (KTN); polycistronic vector with Oct4, Klf4 and Sox2, without c-Myc (cherry vector)): able to generate iPSCs with no c-Myc

`CC(C)NCC(O)c1ccc(O)c(O)c1` (stereo not shown) [isoproterenol] was tested. Which “Effect on [Ca2+]i transient and contraction amplitudes” value [1] did it give?
The value was “marked concentration-dependent positive inotropic effect; also recorded: increase in contraction amplitude”.
